The record followed here is ChEMBL document CHEMBL5726922, “Chemokine CXCR1 and CXCR2 receptor antagonist compounds, and use thereof in the treatment of chemokine-mediated pathologies” (2019).

Usually IC50 stands for the concentration needed to halve the response being measured.

The target in assay [1] is T1, C-X-C chemokine receptor type 2 (Homo sapiens, UniProt P25025).
T1 sequence (P25025 whole entry): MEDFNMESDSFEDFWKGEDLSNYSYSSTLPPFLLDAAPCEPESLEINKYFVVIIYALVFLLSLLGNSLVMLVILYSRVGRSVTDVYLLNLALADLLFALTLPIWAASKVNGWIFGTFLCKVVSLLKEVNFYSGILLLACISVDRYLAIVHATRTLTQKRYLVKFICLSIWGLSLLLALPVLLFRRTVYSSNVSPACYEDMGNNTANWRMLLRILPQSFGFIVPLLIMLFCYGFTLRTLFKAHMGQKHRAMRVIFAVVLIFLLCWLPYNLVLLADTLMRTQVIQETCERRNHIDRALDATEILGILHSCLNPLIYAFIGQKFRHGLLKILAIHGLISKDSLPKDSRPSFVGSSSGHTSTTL
The assay is described as follows: (§1) J. Immunol. 170: 2904-2911).To evaluate the direct interaction of the CXCR2 or CXCR1 receptor with β-arrestin 2, a test of β-arrestin 2 recruitment for CXCR2 or CXCR1 based on complementation of the β-galactosidase enzyme (Olson K. R., Eglen R. M., Beta-galactosidase complementation: a cell-based luminescent assay platform for drug discovery. Assay Drug Dev. Technol. 2007 February; 5(1); 137-44), as established by DiscoveRx Corporation was used. Stimulation of these two cell lines with CXCL8 (10 nM) induces the recruitment of β-arrestin 2, as indicated by a significant increase in the induction factor. All the CXCR2 antagonists are tested in a dose-dependent manner and the concentration corresponding to 50% inhibition of the response is determined (IC50=concentration of half-inhibition).β-Arrestin Recruitment Test: “PathHunter HEK293-CXCR2” or “U2OS hCXCR1 β-arrestin” cells (DiscoveRx Corporation) were seeded overnight at 10 000 cells/well (384-well format) in 20 μl of Opti MEM I medium. Preincubation with the antagonist or the vehicle for 30 minutes at 37° C. and 5% CO2 was followed by 60 minutes of stimulation with CXCL8 at 37° C. and 5% CO2. The cells were then placed at room temperature for 30 minutes. The PathHunter detection reagent (DiscoveRx Corporation) was added. […]. (In general: Activated receptors often draw arrestin, which recruitment assays turn into a signal.)

The target in assay [2] is T2, C-X-C chemokine receptor type 1 (Homo sapiens, UniProt P25024).
T2 sequence (P25024 whole entry): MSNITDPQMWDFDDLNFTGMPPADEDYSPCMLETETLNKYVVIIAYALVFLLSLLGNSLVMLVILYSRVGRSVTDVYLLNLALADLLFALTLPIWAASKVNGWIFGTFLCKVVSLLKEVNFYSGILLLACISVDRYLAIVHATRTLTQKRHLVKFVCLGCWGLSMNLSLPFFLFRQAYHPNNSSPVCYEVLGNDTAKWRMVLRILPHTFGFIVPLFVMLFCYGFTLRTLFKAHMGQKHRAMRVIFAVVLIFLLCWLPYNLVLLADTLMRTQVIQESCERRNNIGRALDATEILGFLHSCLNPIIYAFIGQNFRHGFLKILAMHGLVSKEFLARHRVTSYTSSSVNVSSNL
The description is as §1.

As for `CC[C@@H](Nc1c(Nc2ccc(Cl)c(S(C)(=O)=NCCN(C)C)c2O)c(=O)c1=O)c1ccc(C)o1` (some centres not stated), the IC50 in assay [1] was above 20 nM; in assay [2] it was above 200 nM.
